# Test results from US20070135338A1, “Human GLP-1 mimetibodies, compositions, methods and uses” (priority 2004, published 2007).
# Tests used:
# normal dogs = assay: Gastric emptying in normal dogs; format: in vivo, beagle dogs; conditions: lidamidine 0.63 mg/kg subcutaneously 60 minutes before the meal, GLP-1 MMB 0.1 mg/kg intravenously 15 minutes before the meal
# Experimental: GLP-1 MMB delays gastric emptying in normal dogs. A gastric cannula was surgically implanted into female beagle dogs (10-15 kg) under general anesthesia and allowed-to recover for at least 2 weeks. Dogs were fasted for 24 hours after which water was freely available. The gastric cannula was opened and gastric juice and food remnants were removed with 40-50 ml of lukewarm water. Groups of six dogs were dosed subcutaneously with lidamidine, an alpha2 agonist (0.63 mg/kg), 60 minutes before the meal, a positive control for delay of gastric emptying. Dogs dosed with the vehicle control or GLP-1 MMB (0.1 mg/kg) were dosed intravenously in the cephalic vein 15 minutes before the meal. Five minutes before the meal, the gastric cannula was opened to determine the amount of fluid present in stomach for baseline value and fluid was promptly reintroduced. […] Glucose concentrations were evaluated for collected samples and used to determine the absolute amount of glucose remaining in the stomach at each time point. The percentage of glucose retained in the stomach was determined from the starting value and the concentration of glucose at each time point and plotted as a function of time. The time at which 50% of the gastric contents were retained was determined by fitting of the curves to a single exponential.
# [1] = administered subcutaneously; cited from earlier work
# GLP-1R = biological target: T1, GLP-1R (Homo sapiens, UniProt P43220); assay: FACS binding assay, HEK293 cells over-expressing the GLP-1R; conditions: 20 nM, 2 hours at 4° C., flow cytometry
# T1 construct: expressed in transfected cells; host or cells: HEK293
# T1 sequence (P43220 24-463, species assumed): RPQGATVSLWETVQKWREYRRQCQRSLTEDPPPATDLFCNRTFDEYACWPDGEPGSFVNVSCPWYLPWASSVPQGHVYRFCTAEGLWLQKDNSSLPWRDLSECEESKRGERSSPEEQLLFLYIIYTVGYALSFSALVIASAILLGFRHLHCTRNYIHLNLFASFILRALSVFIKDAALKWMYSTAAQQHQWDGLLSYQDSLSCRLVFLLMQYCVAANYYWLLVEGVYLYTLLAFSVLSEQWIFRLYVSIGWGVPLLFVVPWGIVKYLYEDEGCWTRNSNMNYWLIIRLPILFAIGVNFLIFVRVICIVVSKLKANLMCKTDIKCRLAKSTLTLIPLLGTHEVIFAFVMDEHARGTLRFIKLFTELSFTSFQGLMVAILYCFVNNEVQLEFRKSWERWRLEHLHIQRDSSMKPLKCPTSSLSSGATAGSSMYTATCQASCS
# Experimental: FACS Binding Assay. The activity of GLP-1 mimetibody was tested in an in vitro FACS binding assay. To determine whether the GLP-1 MMB binds the GLP-1R, HEK293 cells (1×10^6 cells) over-expressing the GLP-1R were incubated with GLP-1 MMB (20 nM) for 2 hours at 4° C. The cells were washed, and a fluorescently labeled secondary […] detection antibody (1 μg/mL goat anti-human IgG, Fc gamma specific) was added for 30 minutes at 4° C. The fluorescence intensity of the cells was monitored via flow cytometry.
# control HEK293 cells = assay: FACS binding assay, control HEK293 cells; conditions: flow cytometry
# DPP-IV = biological target: T2, DPP-IV (Homo sapiens, UniProt P27487); assay: DPP-IV cleavage assay; format: in vitro ADME; conditions: 1.2 nM, DPP-IV 1 μg/mL, room temperature, 0-40 minutes
# T2 construct: purchased R&D Systems
# T2 sequence (P27487 whole entry, species assumed): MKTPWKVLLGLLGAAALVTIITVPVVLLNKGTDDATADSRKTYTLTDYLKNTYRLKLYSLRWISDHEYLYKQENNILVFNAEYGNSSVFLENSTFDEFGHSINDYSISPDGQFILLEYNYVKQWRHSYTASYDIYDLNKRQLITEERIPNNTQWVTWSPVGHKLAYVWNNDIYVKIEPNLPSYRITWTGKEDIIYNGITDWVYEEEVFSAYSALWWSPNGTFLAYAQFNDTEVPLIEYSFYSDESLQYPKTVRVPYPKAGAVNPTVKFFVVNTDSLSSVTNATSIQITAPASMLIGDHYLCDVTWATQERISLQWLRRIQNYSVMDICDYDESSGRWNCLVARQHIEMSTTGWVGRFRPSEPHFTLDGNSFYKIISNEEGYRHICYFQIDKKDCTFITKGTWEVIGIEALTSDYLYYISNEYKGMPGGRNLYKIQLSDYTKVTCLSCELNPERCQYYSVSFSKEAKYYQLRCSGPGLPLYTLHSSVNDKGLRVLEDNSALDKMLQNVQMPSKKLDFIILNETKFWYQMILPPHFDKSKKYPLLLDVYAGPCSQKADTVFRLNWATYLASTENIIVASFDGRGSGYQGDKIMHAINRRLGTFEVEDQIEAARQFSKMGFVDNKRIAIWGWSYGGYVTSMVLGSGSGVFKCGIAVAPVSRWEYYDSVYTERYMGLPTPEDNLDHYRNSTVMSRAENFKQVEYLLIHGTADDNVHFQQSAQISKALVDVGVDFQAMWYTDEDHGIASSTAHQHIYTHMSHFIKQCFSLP
# Experimental: DPP-IV cleavage assay. Since GLP-1 is rapidly inactivated by DPP-IV, an in vitro assay was established to quantitate intact (i.e. uncleaved) GLP-1 MMB. Briefly, GLP-1 MMB or peptide (1.2 nM) was incubated at room temperature with DPP-IV (1 μg/mL, R&D Systems). After various times (0, 5, 10, 15, 20, 30, 40 minutes), a DPP-IV inhibitor (100 μM, Linco) was added to quench the reaction. The amount of intact GLP-1 MMB or peptide was measured using the GLP-1 Active ELISA (Linco) and the GLP-1 MMB or peptides for the respective standard curves.
# [2] = Human serum stability assay; format: in vitro ADME; conditions: 30 nM, 37° C., GLP-1 Active ELISA
# Experimental: Human Serum stability assay. The stability of the GLP-1 MMB in serum was also measured to ensure that other serum proteases were not able to cleave and inactivate the GLP-1 MMB. Briefly, GLP1 peptide or the GLP1 MMB (30 nM) was incubated in human serum at 37° C. After various times, the reactions were quenched with a DPP-IV inhibitor (100 μM, Linco), and the samples were analyzed using the GLP-1 Active ELISA from Linco.
# diabetic db/db mice [3] = assay: Oral glucose tolerance test in diabetic db/db mice, single dose; format: in vivo; conditions: subcutaneous 0.02 to 2 mg/kg, all doses tested, 1.0 mg/g glucose
# Experimental: Effects of GLP-1 MMB during an oral glucose tolerance test in diabetic mice. Eight-week old diabetic db/db mice were fasted for 6 hours prior to a subcutaneous injection of the GLP-1 MMB (0.02 to 2 mg/kg). Following dosing, mice were fasted for an additional six hours and a baseline fasting blood glucose was measured. At t=0, mice were given an oral gavage of 1.0 mg/g glucose, and blood glucose was measured at various times.
# diabetic db/db mice [4] = assay: Fasting blood glucose during chronic dosing to diabetic db/db mice; format: in vivo; conditions: 1 mg/kg subcutaneously daily for six weeks
# Experimental: Effects of GLP-1 MMB on fasting blood glucose during chronic dosing to diabetic mice. Ten-week old diabetic db/db mice were subcutaneously dosed daily with vehicle or GLP-1 MMB (1 mg/kg) for six weeks. Fasting blood glucose was measured twice per week during the course of the study.
# diabetic db/db mice [5] = assay: Oral glucose tolerance test after chronic dosing to diabetic db/db mice; format: in vivo; conditions: 1 mg/kg daily
# Experimental: Effects of GLP-1 MMB on oral glucose tolerance test after chronic dosing to diabetic mice. As in Example 11, ten-week old diabetic db/db mice were dosed daily with vehicle or GLP-1 MMB (1 mg/kg) for six weeks. After 40 days of dosing, the mice were given an oral glucose tolerance test. Briefly, at t=0, mice were given an oral gavage of 1.0 mg/g glucose, and blood glucose was measured at various times.
# diabetic db/db mice [6] = assay: HbA1c after chronic dosing to diabetic db/db mice; format: in vivo; conditions: 1 mg/kg daily for six weeks
# Experimental: Effects of GLP-1 MMB on reducing HbAlc after chronic dosing to diabetic mice. As in Examples 11 and 12, ten-week old diabetic db/db mice were dosed daily with vehicle or GLP-1 MMB (1 mg/kg) for six weeks. Before and after six-weeks of dosing, whole blood samples were taken and analyzed for percent HbA1c.
# [7] = tested on: normal cynomolgus monkeys; assay: Oral glucose tolerance test in normal cynomolgus monkeys; format: in vivo; conditions: single dose 1 mg/kg
# Experimental: Effects of GLP-1 MMB on an oral glucose tolerance test in normal cynomolgus monkeys. An oral glucose tolerance test (OGTT) was done in normal cynomolgus monkeys prior to and six days after a single dose of the GLP-1 MMB (1 mg/kg). Briefly, at t=0, monkeys were given an oral gavage of 2.0 mg/g glucose, and blood glucose was measured at various times.
# diabetic mice (db/db) = assay: Insulin staining in islets of diabetic mice (db/db) after a single dose; format: in vivo; conditions: single subcutaneous dose 1.5 mg/kg, four weeks later
# Experimental: Effects of GLP-1 MMB on insulin staining in islets of diabetic mice (db/db) after a single dose. Twelve-week old diabetic mice (db/db) were treated with a single subcutaneous dose of the GLP-1 MMB (1.5 mg/kg), and the pancreata were harvested four weeks later. The pancreata were sectioned and stained for the presence of insulin.
# diet induced obese mice = assay: Oral glucose tolerance test in diet induced obese mice; format: in vivo
# Experimental: GLP-1 MMB lowers blood glucose following an oral glucose tolerance test (OGTT) in diet induced obese mice. To develop a murine model of diet induced obesity, mice were maintained on a high fat diet for at least 27 weeks. Mice became obese and were determined to be diabetic when fasting blood glucose values exceeded 120 mg/dl. To evaluate the effect of GLP-1 MMB therapy on postprandial blood glucose levels, diet induced obese mice were fasted overnight and dosed subcutaneously with 0.02, 0.2, or 2 mg/kg GLP-1 MMB or vehicle control. Six hours after dosing, mice were given a 1.5 mg/g gastric gavage of glucose. Blood glucose levels were determined prior to MMB dosing, at t =0, 15, 30, 60, 90, 120, 150, and 180 minutes using tail vein blood.
# db/db mice = assay: Intraperitoneal glucose tolerance test (IPGTT) in db/db mice; format: in vivo
# Experimental: GLP-1 MMB lowers blood glucose in an intraperitoneal glucose tolerance test (IPGTT) in db/db mice. Male db/db mice of approximately 13-15 weeks of age were randomized into treatment groups of six mice based on fasting blood glucose levels. Mice were dosed with either 0.02 mg/kg or 0.1 mg/kg of GLP- I MMB or 0.1 mg/kg of negative control MMB six hours prior to the glucose tolerance test. Five minutes before the glucose tolerance test, a glucose measurement was taken with a hand held glucometer from tail vein blood. Mice were then dosed intraperitoneally with 1 mg/g of D-glucose and blood glucose levels were monitored at 10 min,20 min,30 min, 60 min, 90 min, 120 min, 150 min, and 180 min. […] Additional groups of animals treated in the same manner were sacrificed for measurement of insulin levels at t=10 minutes.
# [8] = tested on: patients with type 2 diabetes; conditions: type 2 diabetic patients, cited from earlier work
# RINm cells = assay: Insulin secretion in RINm cells (ELISA); format: cell-based; conditions: peptides 0-5 nM, mimetibodies 5 or 50 nM
# Experimental: GLP-1 MMB causes insulin secretion in RINm cells. To test the effect of GLP-1 MMB in insulin secretion, RINm cells were treated with increasing concentrations of GLP-1 (7-36) peptide (0-5 nM), exendin-4 peptide (0-5 nM), or various GLP-1 mimetibodies (5 or 50 nM) and the amount of insulin secreted was measured via ELISA. All GLP-1 MMBs tested had activities in stimulating insulin secretion in RINm cells (FIG. 6).
compound,measurement,setting,value
"CN=C(N)NC(=O)Nc1c(C)cccc1C [lidamidine, reference compound]",time in which 50% of the gastric contents were emptied,normal dogs,30.60 ± 6.47 min
GLP-1 (7-36) amide: GLP-1 (7-36) amide,time action,[1],about 50 minutes
"GLP-1 MMB: GLP-1 mimetibody construct (SEQ ID NO:2): GLP-1 peptide (7-36), flexible linker, J region, IgG1 hinge, CH2 and CH3",binding to HEK293 cells over-expressing the GLP-1R,GLP-1R,binds
same,binding to control HEK293 cells,control HEK293 cells,does not bind
same,resistance to cleavage by DPP-IV relative to the GLP-1 peptide,DPP-IV,significantly more resistant
same,stability in human serum,[2],stable in human serum for 24 hours
same,glucose excursion during an oral glucose tolerance test,diabetic db/db mice [3],effective in lowering the glucose excursion
same,"difference in fasting blood glucose, control vs treated, by six weeks",diabetic db/db mice [4],more than 200 mg/dL
same,fasting blood glucose by six weeks,diabetic db/db mice [4],221 mg/dL
same,glucose excursion during an oral glucose tolerance test after 40 days of dosing,diabetic db/db mice [5],effective in lowering the glucose excursion
same,increase of HbA1C during the six-week period,diabetic db/db mice [6],109%
same,insulin levels in OGTT six days after dosing,[7],significantly increased
same,blood glucose levels in OGTT six days after dosing,[7]; 2.0 mg/g glucose,significantly reduced
same,insulin staining in pancreata relative to control animals,diabetic mice (db/db),significantly more insulin staining
same,time in which 50% of the gastric contents were emptied,normal dogs,59.23 ± 14.46 min
same,glucose areas under the curve between t=0 and t=180,diet induced obese mice; all doses,significant lowering
same,fasting blood glucose values at t=0 and all subsequent time points,"diet induced obese mice; subcutaneous 0.02, 0.2, or 2 mg/kg, six hours before 1.5 mg/g glucose",dose dependent decrease
same,amount of insulin released at t=10 minutes,db/db mice; 0.02 mg/kg or 0.1 mg/kg,dose dependent increase
same,blood glucose levels over the full time course of IPGTT,"db/db mice; 0.02 mg/kg or 0.1 mg/kg six hours prior, 1 mg/g D-glucose",significant lower
GLP-1: Glucagon like peptide-1 given as six-week infusion in the clinic (HAEGTFTSDVSSYLEGQAAKEFIAWLVKGRG),fasting and 8-hour mean plasma glucose levels,[8]; six-week infusion,lowered
same,β-cell function,[8],improvement in β-cell function
"exendin-4 peptide: exendin-4 peptide, comparator in insulin secretion assay",insulin secretion in RINm cells,RINm cells,stimulates insulin release
